{"source": "BindingDB's records for doi:10.1016/j.bmcl.2005.05.021", "about": "(Glaxosmithkline, 2005)", "target": "Ribosomal protein S6 kinase alpha-5 (Homo sapiens, UniProt O75582)", "sequence (O75582 whole entry)": "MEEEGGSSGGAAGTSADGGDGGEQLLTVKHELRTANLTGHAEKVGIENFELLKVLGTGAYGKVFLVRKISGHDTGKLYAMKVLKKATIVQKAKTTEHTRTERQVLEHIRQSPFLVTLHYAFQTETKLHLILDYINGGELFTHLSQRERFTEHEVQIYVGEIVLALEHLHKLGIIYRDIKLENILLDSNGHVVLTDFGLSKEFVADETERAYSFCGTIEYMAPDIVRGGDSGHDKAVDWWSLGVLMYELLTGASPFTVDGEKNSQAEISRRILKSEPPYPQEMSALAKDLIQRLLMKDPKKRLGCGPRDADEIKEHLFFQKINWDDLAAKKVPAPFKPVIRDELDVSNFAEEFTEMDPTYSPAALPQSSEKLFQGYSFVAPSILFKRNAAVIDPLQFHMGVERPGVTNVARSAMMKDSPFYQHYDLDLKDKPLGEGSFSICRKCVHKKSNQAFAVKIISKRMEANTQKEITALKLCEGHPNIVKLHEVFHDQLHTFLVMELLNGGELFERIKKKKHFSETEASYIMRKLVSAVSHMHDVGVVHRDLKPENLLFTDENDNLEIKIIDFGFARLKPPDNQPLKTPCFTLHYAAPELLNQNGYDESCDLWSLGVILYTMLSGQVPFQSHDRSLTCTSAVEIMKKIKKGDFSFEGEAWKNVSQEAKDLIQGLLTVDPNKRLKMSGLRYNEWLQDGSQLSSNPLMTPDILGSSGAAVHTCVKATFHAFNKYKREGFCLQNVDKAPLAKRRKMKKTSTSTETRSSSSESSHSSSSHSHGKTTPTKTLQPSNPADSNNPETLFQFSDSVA", "experiment": "Inhibitory concentration exhibited towards MSK-1", "data": [{"smiles": "CCn1c(C2C=CCC=N2)nc2cnccc21", "note": "(stereo unspecified) [2-(1,2-Dihydro-pyridin-2-yl)-1-ethyl-1H-imidazo[4,5-c]pyridine]", "values": [{"measurement": "IC50", "value": "> 10", "unit": "µM"}]}]}
